Patent publication US20260256794A1, “Oral Dynamine Formulations and Methods Therefor” (Ortho-Nutra, LLC, priority 2023, published 2026)
Values joined by “and” are separate entries in the source; they are usually repeats but may differ in a detail not shown here. Identical values can stand only once.

Tests used:
Format in all cases: in vivo, human
subjects [1] = experiment: VAS-Motivation; design: VAS-Motivation rating, Mean / VAS-Motivation changes from baseline, Mean Difference ± SE / VAS-Motivation area under the curve, Mean Difference ± SE / VAS-Motivation area under the curve, Mean: scale not given here
Method: (§1) The inventors have discovered various compositions and methods of improving various indices of neurological and neuroenergetic functions by administering 100 mg (once daily) dosages of DYNAMINE™ (dosage between 1.0 and 1.4 mg/kg) as described in the following:
(§2) All neuroenergetic tests as listed below were performed and data were collected after 0 and 4 days of assigned supplements (with acute effects also measured at day 4 over 180 minutes):
(§3) All VAS Measurement (Energy, Sustained Energy, Mental Stamina, Ability to Focus, Ability to Concentrate, Motivation to Accomplish Difficult Tasks, Drive, Vigor, Level of Positive Outlook, Mood, Feelings of Well-Being, Tolerate Stress); Day 0: Two tests were completed. The average of both scores was computed and this value was used in all statistical analysis. Day 4 (0 minutes after ingesting dose #4): Two tests were completed. The average of both scores was computed and this value was used in all statistical analysis. Day 4 (60, 120, and 180 minutes after ingesting dose #4): One test was completed at each time point.
(§4) Neuroenergic parameters are inherently subjective, nevertheless significant in human behavior and well-being. To allow for a standardization among different subjects, the following experiments were performed using a visual analog scale using anchor statements (lowest possible/highest possible) in which subjects were asked to rate their subjective experience with respect to the specific neuroenergic parameters tested.
VAS-Motivation: In this subjective test, subjects were asked to rate their personal level of energy on a VAS scale using the prompt of “My motivation to accomplish difficult tasks right now is . . . ” (with rating lowest possible to highest possible)”. Results were collected as noted above and Table 19 provides exemplary results for Day 0 versus Day 4 ratings, whereas Table 20 provides exemplary acute results measured at Day 4 over a duration of 180 minutes.

subjects [2] = experiment: Stroop-Average Time; settings: unit assumed
Method: as §1, §2
(§5) Stroop Color Matching Test (Total Score, Accuracy %, Average Score): Day 0: Two blocks of three tests were completed. Each block of three tests was separated by 10 minutes. The median of each block was taken and then those two scores were averaged. This value was used in all statistical analysis. Day 4: Three tests were completed at four time points: after 0, 60, 120, and 180 minutes of taking dose #4. The median of the three tests at each time point was used in all statistical analysis.
(§6) The Stroop Color and Word Test (SCWT, or Stroop test) is a neuropsychological test extensively used to assess the ability to inhibit cognitive interference that occurs when the processing of a specific stimulus feature impedes the simultaneous processing of a second stimulus attribute, well-known as the Stroop effect (see e.g., Front Psychol. 2017; 8:557). Here, subjects were required to read three different tables as fast as possible. Two of them represent the “congruous condition” in which participants are required to read names of colors (‘color-words’) printed in black ink (W) and name different color patches (C). However, in the third table, the color-word (CW) condition, color-words are printed in an inconsistent color ink (e.g., the word “red” is printed in green ink). In this incongruent condition, participants are required to name the color of the ink instead of reading the word. In other words, the participants are required to perform a less automated task (i.e., naming ink color) while inhibiting the interference arising from a more automated task (i.e., reading the word). This difficulty in inhibiting the more automated process is called the Stroop effect. The Stroop test is predominantly used to measure the ability to inhibit cognitive interference. However, some sources also report its application to measure other cognitive functions such as attention, processing speed, cognitive flexibility, and working memory.
(§7) Stroop-Average Time: The results for this test were based on an average time score comparing performance between Day 0 and Day 4, with Day 4 including tests over a duration of 180 minutes. Results were collected as noted above and Table 45 provides exemplary results for Day 0 versus Day 4 ratings, whereas Table 46 provides exemplary acute results measured at Day 4 over a duration of 180 minutes.

subjects [3] = experiment: Stroop-Accuracy
Method: as §1, §2, §5, §6
as §7, with “Stroop-Accuracy:” for “Stroop-Average Time:”, “accuracy” for “average time”, “43” for “45”, “44” for “46”

subjects [4] = experiment: VAS-Ability to tolerate stress; design: VAS-Ability to tolerate stress rating, Mean / VAS-Ability to tolerate stress changes from baseline, Mean Difference ± SE / VAS-Ability to tolerate stress area under the curve, Mean Difference ± SE / VAS-Ability to tolerate stress area under the curve, Mean: scale not given here
Method: as §1, §2, §3, §4
VAS-Ability to tolerate stress: In this subjective test, subjects were asked to rate their personal level of energy on a VAS scale using the prompt of “My ability to tolerate stress right now is . . . ” (with rating lowest possible to highest possible)”. Results were collected as noted above and Table 37 provides exemplary results for Day 0 versus Day 4 ratings, whereas Table 38 provides exemplary acute results measured at Day 4 over a duration of 180 minutes.

[5] = 100 mg once daily, Day 4, 0-180 min
[6] = 100 mg once daily, Day 4, 0-180 min, vs Group A (placebo)
[7] = 100 mg once daily, Day 4, 0 min after dose #4
[8] = 100 mg once daily, Day 4, 60 min-0 min, vs Group A (placebo)
[9] = 100 mg once daily, Day 4, 60 min after dose #4
[10] = 100 mg once daily, Day 4, 120 min-0 min, vs Group A (placebo)
[11] = 100 mg once daily, Day 4, 120 min after dose #4
[12] = 100 mg once daily, Day 4, 180 min-0 min, vs Group A (placebo)
[13] = 100 mg once daily, Day 4, 180 min after dose #4

COc1nc2c(c(=O)n1C)n(C)c(=O)n2C [methylliberine, 2-methoxy-1,7,9-trimethylpurine-6,8-dione]
VAS-Motivation area under the curve, Mean (subjects [1]; [5]): 1113
VAS-Motivation area under the curve, Mean Difference ± SE (subjects [1]; [6]): 36.8 ± 37.4
VAS-Motivation area under the curve, effect size d (subjects [1]; [6]): 0.11
VAS-Motivation rating, Mean (subjects [1]; [7]): 5.7
VAS-Motivation changes from baseline, Mean Difference ± SE (subjects [1]; [8]): −0.07 ± 0.27
VAS-Motivation changes from baseline, effect size d (subjects [1]; [8]): −0.08
VAS-Motivation rating, Mean (subjects [1]; [9]): 6.2
VAS-Motivation changes from baseline, Mean Difference ± SE (subjects [1]; [10]): −0.25 ± 0.27
VAS-Motivation changes from baseline, effect size d (subjects [1]; [10]): −0.25
VAS-Motivation rating, Mean (subjects [1]; [11]): 6.2
VAS-Motivation changes from baseline, Mean Difference ± SE (subjects [1]; [12]): 0.53 ± 0.27
VAS-Motivation changes from baseline, effect size d (subjects [1]; [12]): 0.50
VAS-Motivation rating, Mean (subjects [1]; [13]): 6.6
VAS-Motivation rating, Mean (subjects [1]; Day 0 (before supplementation)): 5.8
Stroop average time, Mean (subjects [2]; [7]): 0.961 s
Stroop average time, Mean (subjects [2]; [9]): 0.929 s
Stroop average time, Mean (subjects [2]; [11]): 0.921 s
Stroop average time, Mean (subjects [2]; [13]): 0.908 s
Stroop average time, Mean (subjects [2]; Day 0 (before supplementation)): 0.983 s
Stroop accuracy, Mean (subjects [3]; [7]): 99.2%
Stroop accuracy, Mean (subjects [3]; [9]): 99.1%
Stroop accuracy, Mean (subjects [3]; [11]): 99.0%
Stroop accuracy, Mean (subjects [3]; [13]): 98.9%
Stroop accuracy, Mean (subjects [3]; Day 0 (before supplementation)): 99.2%
VAS-Ability to tolerate stress area under the curve, Mean (subjects [4]; [5]): 1075
VAS-Ability to tolerate stress area under the curve, Mean Difference ± SE (subjects [4]; [6]): 45.5 ± 45.6
VAS-Ability to tolerate stress area under the curve, effect size d (subjects [4]; [6]): −0.13
VAS-Ability to tolerate stress rating, Mean (subjects [4]; [7]): 5.7
VAS-Ability to tolerate stress changes from baseline, Mean Difference ± SE (subjects [4]; [8]): 0.17 ± 0.18
VAS-Ability to tolerate stress changes from baseline, effect size d (subjects [4]; [8]): 0.21
VAS-Ability to tolerate stress rating, Mean (subjects [4]; [9]): 6.2
VAS-Ability to tolerate stress changes from baseline, Mean Difference ± SE (subjects [4]; [10]): 0.28 ± 1.42
VAS-Ability to tolerate stress changes from baseline, effect size d (subjects [4]; [10]): 0.27
VAS-Ability to tolerate stress rating, Mean (subjects [4]; [11]): 6.4
VAS-Ability to tolerate stress changes from baseline, Mean Difference ± SE (subjects [4]; [12]): 0.67 ± 0.30
VAS-Ability to tolerate stress changes from baseline, effect size d (subjects [4]; [12]): 0.52 and 0.54
VAS-Ability to tolerate stress rating, Mean (subjects [4]; [13]): 6.4
VAS-Ability to tolerate stress rating, Mean (subjects [4]; Day 0 (before supplementation)): 6.1
